Reference: patent US20080220069A1, “Long Acting Injectable Crystal Formulations of Estradiol Metabolites and Methods of Using Same” (PR PHARMACEUTICALS, INC., priority 2004, published 2008)

Key:
[1] = room temperature
[2] = In vivo pharmacokinetics of 2ME particles ranging from 90 to 180 micrometers (Example 7); settings: rat, 5 mg/rat subcutaneous, particles 90 to 180 micrometers
Experimental: (§1) A portion of the 2-methoxyestradiol prepared in Example 1 was ground in a mortar and pestle and sieved through stainless steel screens to generate a population of particles ranging from 90 to 180 micrometers. On day 0, each animal in the treatment group (n=6) received 5 mg/rat of 2ME in 0.25 ml injection vehicle consisting of 0.5% w/v sodium carboxymethylcellulose containing 5% w/v mannitol and 0.05% w/v SDS by subcutaneous injection using a 1 cc syringe and a 1 inch, 20-gauge needle. On Day—3 blood was collected from all rats via the tail vein. Rats were bled periodically via the lateral tail vein. Plasma samples were extracted, derivatized, and 2ME concentration was measured using a qualified gas chromatography-mass spectroscopy detection method. Plasma concentrations versus time are plotted in FIG. 3.

[3] = In vivo pharmacokinetics of altered crystal form (hemi hydrate) of 2ME (Example 6); settings: rat, 5 mg/rat subcutaneous, hemi hydrate crystals approx. 10 μm, by day 28
Experimental: A solution of 2-methoxyestradiol (2ME) (Tetrionics, Madison, Wis.) was made in n-methylpyrrolidone at a 10% w/v concentration. One volume of the 2ME solution was added to 1000 volumes of water stirring rapidly at 23° C. The mixture was allowed to stir prior to the addition of sodium dodecyl sulfate (SDS) to a final concentration of 0.1% w/v. The 2ME was collected by sedimentation and washed twice with 0.1% SDS.
as §1, with “On” for “A portion of the 2-methoxyestradiol prepared in Example 1 was ground in a mortar and pestle and sieved through stainless steel screens to generate a population of particles ranging from 90 to 180 micrometers. On”, “2.” for “3.”

[4] = In vivo pharmacokinetics of 2ME crystal preparation with broad size distribution (Example 2), plasma 2ME by gas chromatography-mass detection; settings: rat, 5 mg/rat subcutaneous
Experimental: The material generated in Example 1 was ground in a mortar and pestle, sieved through a 180 um screen, and the particle size distribution of the sieved material was measured on a Coulter LS13320 Particle Size analyzer.
On day 0, animals in all treatment groups received 5 mg/rat of 2ME in 0.25 ml injection vehicle consisting of 2.0% w/v sodium carboxymethylcellulose containing 0.01% w/v Tween 80 and 0.1% w/v SDS by subcutaneous injection using a 1 cc syringe and a 1″, 20-gauge needle. On Day—3 blood was collected from all rats via the tail vein. On Days 1, 3, 7, 21, 28, and 35, all rats were bled via the lateral tail vein. Plasma samples were extracted, derivatized, and 2ME concentration was measured using a qualified gas chromatography-mass detection method. The plasma concentration profile of 2ME released from crystals with a broad size distribution is characterized by an initial burst followed by sustained blood levels of approximately 5 ng/ml between days 3 and 28.

[5] = rat, 16 mg subcutaneous in 2.5% w/v sodium carboxymethylcellulose, after 15 days

In the case of `C[C@]12CC[C@@H]3c4cc(O)c(O)cc4CC[C@H]3[C@@H]1CC[C@@H]2O` [2-hydroxyestradiol], the water solubility [1] is reported as “approximately 0.155 mg/ml”.

With `COc1cc2c(cc1O)CC[C@@H]1[C@@H]2CC[C@]2(C)[C@@H](O)CC[C@@H]12` [2ME, 2-methoxyestradiol] the 2ME in plasma ([2]; day 51) was “still measurable”, the initial plasma concentrations ([2]; first week) was “low initial plasma concentrations” and the “plasma 2ME concentrations” value [3] was “fallen to zero”. For the same compound, the “sustained blood levels of 2ME” value ([4]; crystals 48.98±36.95 μm, between days 3 and 28) was “approximately 5 ng/ml”, the 2ME blood levels ([4]; crystals 48.98±36.95 μm, by day 35) was “fallen to zero” and the “plasma concentration profile, initial phase” value ([4]; crystals with a broad size distribution) was “initial burst”.

With `COc1cc2c(cc1OC(=O)c1ccccc1)CC[C@@H]1[C@@H]2CC[C@]2(C)[C@@H](O)CC[C@@H]12` [3-benzoyl-2-methoxyestradiol] the “water solubility of the esterified compound, fold lower than parent estradiol metabolite” value ([1]; same conditions as parent) was “approximately 3 fold” and the “release of the injected dose (chromatographic analysis of dissected injection site)” value [5] was 6.2%±1.2.
